These results are taken from patent US7179954B1, “Isolated nucleic acids coding for a nuclear base transporter and uses thereof” (Carnegie Insitution of Washington, priority 1999, dated 2007).

Assay [1] has as its target T1, PUP1 nuclear base transporter (Arabidopsis thaliana, UniProt Q9FZ96, S63G).
T1 construct: The PUP1 protein expressed by the yeast strain MG887ura3^−::pFL61-PUP1; expressed in transfected cells; host or cells: Saccharomyces cerevisiae MG887ura3- (fcy2), plasmid pFL61-PUP1
Format: cell-based. The conditions noted are these: for Transport of cytokinin by PUP1: 3H-labelled cytokinins. The protocol:
The uptake was set temporarily at a concentration of 100 μM trans-zeatin. In this case PUP1 was expressed under control of the yeast ATPase promoter PMA1 in the vector pDR195 (Rentsch et al., 1995, FEBS Left. 370, […]) in the mutant MG877ura3^−::(FCY). The empty vector (FCY2pDR195) served as control.
(§1) For measuring the rate of uptake the yeast strains MG887ura3^−::pFL61, MG887ura3^−::pFL61-PUP1 and their original strain Σ1278b (Dubois & Grenson, 1979, Mol. Gen. Genet. 175, 67–76) were cultured in complete medium (YPD) without uracil and with 2% glucose as carbon source up to an OD600 of 0.6 at 28° C. The cells were harvested at 3000 g, washed twice with water and brought to an OD600 of 12 with sodium phosphate buffer (100 mM, pH 4.5), 1% glucose. The cell suspension was stored in 100 μl portions on ice up to the beginning of the uptake measurements. Before the start of the uptake measurements the cells were pre-incubated at 30° C. for 2 minutes. The reaction was then started, by which 100 μl of radioactively labelled substrate solution was added to 100 μl cell suspension. The reaction mixture was incubated at 30° C. and after 30, 60, 120 and 180 seconds in each case 50 μl of suspension was withdrawn and placed in 4 ml of ice-cold water (in measurements over 180 seconds more cell suspension and substrate solution were correspondingly added). The cells were absorbed on to glass fibre filters and washed with 4 ml of ice-cold water. The radioactivity on the filters was finally ascertained in a liquid scintillation counter.
The uptake experiments were carried out with ^3H-labelled zeatine in MG887ura3^− as for adenine. To start the reaction 87.3Bq/μl of the radioactive substrate was added to a total concentration of 100 μM trans-zeatine.

The target in assay [2] is T1, PUP1 nuclear base transporter. The assay can be described thus: Influence of inhibitors on PUP1-mediated adenine or cytosine uptake in yeast strain MG887ura3-::pFL61-PUP1. The settings on record: for Relative adenine uptake / Relative cytosine uptake: added five minutes before measurement, without inhibitor = 100; for Effect on PUP1-mediated adenine or cytosine uptake: statement in words. It is filed as cell-based. The protocol: as §1
(§2) Substrate solution: For the substrate solution what is concerned is a 100 mM sodium phosphate buffer pH 4.5 with 1% glucose and 9.25 Bq/μl of radioactively labelled substrate (25–100 μM [^14C] adenine or [^14C] cytosine). In addition the substrate solution contains the unlabelled substrate, possible inhibitors and competitors in double end-concentration. For estimation of the optimum pH the pH value of the sodium phosphate buffer is also changed. When the influence of glucose on the uptake rate is measured neither the cell suspension nor the substrate solution contains glucose. Glucose is only added after starting the uptake measurements at the commencement of measuring at an end-concentration of 1%.
The influence of various inhibitors on the adenine or cytosine uptake mediated by the PUP1 nuclear base transporter in the yeast strain MG887ura3^−::pFL61-PUP1 is indicated in Table 2. The inhibitors were added to the cells five minutes before beginning the measurements. […] This may be taken as a clear indication of a secondarily active proton-associated uptake mechanism.

The target is the same in assay [3]. Put plainly: Uptake of radioactively labelled adenine and cytosine by yeast strain MG887ura3-::pFL61-PUP1. Format: cell-based. The protocol:
as §1, §2
(§3) In Table 1 the uptake of radioactively labelled adenine and cytosine mediated by the PUP1 nuclear base transporter is indicated by the yeast strain MG887ura3^−::pFL61-PUP1. For calculation of the intracellular concentration the cell volume is estimated as four times the dry weight (Ninnemann et al., 1994, EMBO J. 15, 3464–3471). The uptake occurs against a concentration gradient.

In assay [4] the target is T2, PUP1 nuclear base transporter (Arabidopsis thaliana, UniProt Q9FZ96).
T2 construct: The PUP1 protein expressed by the yeast strain MG887ura3^−::pFL61-PUP1; expressed in transfected cells; host or cells: Saccharomyces cerevisiae MG887ura3- (fcy2), plasmid pFL61-PUP1
The assay is described as above. Format: cell-based. The settings on record: initial concentration medium 200 μM; intracellular, cell volume estimated as four times the dry weight. The protocol:
as §1, §2, §3

Assay [5] addresses T3, PUP1 (Arabidopsis thaliana, UniProt Q9FZ96, S63G). Put plainly: Growth of yeast strain DM734-284D on adenosine minimal medium (adenosine transport complementation). The settings on record: minimal medium with 150 μM adenosine instead of adenine; after 3 days. Details: PUP1 was expressed under control of the yeast ATPase promoter PMA1 in the vector pDR195; expressed in transfected cells; host or cells: Saccharomyces cerevisiae MG887ura3- (A5, A8) or DM734-284D (A7), construct pDR195PUP1. Format: cell-based. An excerpt:
The Saccharomyces cerevisiae strain DM734-284D (genotype: ade8-18, ade2-1, arg-4-16, leu2-17, trp1-1, lys2, ura3: Yeast Genetic Stock Center) was used for growth studies. This yeast strain owing to mutations at the gene loci ade 8-18 and ade 2-1 is not itself in a position to synthesize adenine. […] This adenine is taken up via the purine/cytosine transporter FCY2 of the yeast. The DM734-284D strain is however still in a position to grow in medium containing adenosine instead of adenine, provided adenosine transport in the yeast cells is mediated by an adenosine transporter inserted by genetic engineering.
In order to check whether PUP1 mediates the transport of adenosine, the strain DM734-284D was transformed according to the standard procedure for yeast transformation (Dohmen et al., 1991, Yeast 7,691–692) with the constructs pDR195PUP1 and pDR195 as controls (Rentsch et al., 1995, FEBS Lett. 370, […]). For final checking of the transformation the early stages of transformation were plated on minimal medium containing 150 μM adenine and the amino acids arginine, leucine, tryptophane (each 60 mg/l) and lysine (70 mg/l) necessary for growth. Uracil served as transformation marker. Three independent positive clones of the control and the PUP1-expressing clone were plated on minimal medium containing 150 μM adenosine instead of 150 μM adenine.

Assay [6] has as its target T3, PUP1. Put plainly: Sensitivity of yeast MG887ura3- clones to caffeine-containing minimal medium. Format: cell-based. Details: PUP1 was expressed under control of the yeast ATPase promoter PMA1 in the vector pDR195; expressed in transfected cells; host or cells: Saccharomyces cerevisiae MG887ura3- (A5, A8) or DM734-284D (A7), construct pDR195PUP1. The conditions noted are these: minimal medium plates, 6 days at 28° C. The protocol:
In order to check whether PUP1 mediates the transport of caffeine, the sensitivity of the Saccharomyces cerevisiae strain MG887ura3^− to caffeine-containing minimal medium was investigated. At certain concentrations caffeine is toxic to yeast (Bard et al., J. Bacteriol. 141, 999–1002), leading to slower growth or death of the yeast.
For this test various caffeine concentrations between 0 and 1.5% were put into minimal medium. Yeast clones grown in liquid minimal medium for 16 hours were spread out on the corresponding plates and incubated for 6 days at 28° C.

In assay [7] the target is T1, PUP1 nuclear base transporter. The assay can be described thus: cell-based. The protocol:
as §1

T3 sequence (Q9FZ96 whole entry S63G): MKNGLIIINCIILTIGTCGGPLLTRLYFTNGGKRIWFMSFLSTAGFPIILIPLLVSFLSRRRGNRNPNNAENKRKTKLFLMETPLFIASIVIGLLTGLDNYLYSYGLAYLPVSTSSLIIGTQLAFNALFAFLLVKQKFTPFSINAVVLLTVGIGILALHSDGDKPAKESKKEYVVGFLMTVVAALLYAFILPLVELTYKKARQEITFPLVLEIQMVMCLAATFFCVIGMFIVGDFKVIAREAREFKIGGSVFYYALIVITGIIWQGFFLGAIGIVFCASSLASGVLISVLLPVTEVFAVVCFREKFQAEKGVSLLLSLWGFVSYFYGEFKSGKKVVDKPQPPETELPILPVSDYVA
T1 sequence (Q9FZ96 whole entry S63G): as above
T2 sequence (Q9FZ96 whole entry S63G): as above

For 2-isopentenyl adenine, in assay [1], the “Transport of cytokinin by PUP1” value is on record as “can also transport cytokinins”.

In assay [2] (100 μM inhibitor), `O=[N+]([O-])c1ccc(O)c([N+](=O)[O-])c1` [2,4-DNP, 2,4-dinitrophenol] registered a Relative adenine uptake of 54% and a Relative cytosine uptake of 58%. For the same molecule, the “Effect on PUP1-mediated adenine or cytosine uptake” value (shortened to “Effect”) in assay [2] is “block the uptake”.

Consider `N#CC(C#N)=NNc1cccc(Cl)c1` [CCCP, carbonyl-cyanide-m-chlorphenylhydrazone], for which, in assay [2] (100 μM inhibitor), the Relative adenine uptake is reported as 13% and the Relative cytosine uptake stood at 20%. In addition, the “Effect” value in assay [2] is “block the uptake”.

For `Nc1cc[nH]c(=O)n1` [Cytosine, cytosine], in assay [3] (cells versus medium, initial concentration medium 200 μM), the Enrichment factor was determined as 18. Moreover, the “End conc. Medium” value in assay [3] (initial concentration medium 200 μM, yeast strain MG887ura3-::pFL61-PUP1) was determined as 145 µM. In addition, the “pH dependence of PUP1-mediated uptake” value in assay [3] (yeast strain MG887ura3-::pFL61-PUP1, FIG. 2, substrate 100 μM) is “dependent on the pH level”. Further, the “Glucose dependence of PUP1-mediated uptake” value in assay [3] (yeast strain MG887ura3-::pFL61-PUP1, FIG. 3, glucose 1%) is given as “glucose-dependent”. In addition, the “End conc Cells” value in assay [4] was 2660 µM.

On to `C(=NC1CCCCC1)=NC1CCCCC1` [DCCD], for which, in assay [2] (100 μM inhibitor), the Relative adenine uptake is reported as 47% and the Relative cytosine uptake amounted to 55%.

As for `Nc1ncnc2c1ncn2[C@@H]1O[C@H](CO)[C@@H](O)[C@H]1O` [adenosine], at PUP1 [5], the “Growth of PUP1-expressing clone” value is listed as “Definite growth” and the “Growth of clone transformed with the vector pDR195 (control)” value is “no growth”.

Take `Cn1c(=O)c2c(ncn2C)n(C)c1=O` [caffeine]: the “Caffeine concentration from which PUP1-expressing yeasts displayed distinctly slowed-down growth compared to control and PUP2-expressing strain” value at PUP1 [6] is listed as no less than 0.2%.

Consider `C[C@@H]1C[C@@H]([C@H](O)CC2CC(=O)NC(=O)C2)C(=O)[C@@H](C)C1` [cycloheximide], for which, in assay [2] (10 μg/ml inhibitor), the Relative adenine uptake worked out at 95% and the Relative cytosine uptake was determined as 97%.

As for `CC/C(=C(/CC)c1ccc(O)cc1)c1ccc(O)cc1` [diethylstilboestrol], in assay [2] (100 μM inhibitor), the Relative adenine uptake came out at 4% and the Relative cytosine uptake came to 8%. Further, the “Effect” value in assay [2] is on record as “block the uptake”.

Take `c1coc(CNc2ncnc3[nH]cnc23)c1` [kinetin]: the Ki in assay [7] is 35 µM.

Regarding `C/C(=C\CNc1ncnc2[nH]cnc12)CO` [zeatin], in assay [7], the affinity corresponds to a Ki of 30 µM. Moreover, the “Increased uptake of radioactively labelled trans-zeatine, PUP1-expressing clone versus control strain (pDR195)” value in assay [1] (100 μM trans-zeatine, three independent experiments) was 70 times. Also, in assay [1], the “Transport of cytokinin by PUP1” value is given as “can also transport cytokinins”.

The term Ki denotes the equilibrium dissociation constant of an inhibitor or competing ligand from its target.
